Legend:
[1] = Sensorical analysis of 3 samples steviol-glycosides, trained panel of 6 test persons; type: in vivo, human; conditions: 200 ppm solutions in water, 100 ml, blinded
Method: Trained panel of 6 test persons.
Samples were prepared as 200 ppm solutions in water (same temperature).
Each test person received 3 equal glasses with 100 ml of prepared sample. The glasses were denoted with random 3-digit numbers.
The question asked was: “Can you taste a difference between the samples and if so please describe the difference in plain text”.
After the tasting period, the panel exchanged the individual opinions and came to following conclusion (the nature of sample was kept hidden until the conclusion was reached): […]

[2] = compared with stevioside; Phytochemistry 68, 2007, 1855-1863; cited from earlier work

For `C=C1C[C@@]23CC[C@H]4[C@@](C)(CCC[C@@]4(C)C(=O)O[C@@H]4O[C@H](CO)[C@@H](O)[C@H](O)[C@H]4O)[C@@H]2CC[C@]1(O[C@@H]1O[C@H](CO)[C@@H](O)[C@H](O[C@@H]2O[C@H](CO)[C@@H](O)[C@H](O)[C@H]2O)[C@H]1O[C@@H]1O[C@H](CO)[C@@H](O)[C@H](O)[C@H]1O)C3` [Rebaudioside A], the “bitter after taste (panel conclusion)” value [1] is given as “slight bitter after taste”, the “sweetness compared with the other samples (panel conclusion)” value [1] is given as “slightly less sweet than the 2 other samples” and the taste quality [2] is given as “better than stevioside”.
